Measured values taken from patent publication US5583115A, “Dialkyltiacumicin compounds” (Abbott Laboratories, priority 1995, dated 1996).
Values after ≈ are worked out from the molar mass of the structure shown.

Columns and labels:
Providencia stuartii = experiment: MIC agar dilution, aerobic and facultative bacteria; conditions: Culture # 1831
Enterobacter aerogenes = experiment: as above; conditions: Culture # 1677
[1] = test system: Acinetobacter calcoaceticus; experiment: as above; conditions: Culture # 1845
Veillonella parvula = experiment: MIC agar dilution, anaerobic bacteria; format: cell-based; conditions: Culture # 2479
Enterococcus faecium = experiment: MIC agar dilution, aerobic and facultative bacteria; conditions: Culture # 1668
Bacteriodes fragilis = experiment: MIC agar dilution, anaerobic bacteria; format: cell-based
B. bivius = experiment: MIC agar dilution, anaerobic bacteria; format: cell-based; conditions: Culture # 2483
C. difficile = experiment: MIC agar dilution, anaerobic bacteria; format: cell-based
Candida albicans = experiment: MIC agar dilution, aerobic and facultative bacteria; conditions: Culture # 3622
Nocardia asteroides = experiment: as above; conditions: Culture # 5173
Streptococcus agalactiae = experiment: as above; conditions: Culture # 1670
B. vulgatus = experiment: MIC agar dilution, anaerobic bacteria; format: cell-based
E. coli = experiment: MIC agar dilution, aerobic and facultative bacteria; format: cell-based
P. magnus = experiment: MIC agar dilution, anaerobic bacteria; format: cell-based; conditions: Culture # 1778
Staphylococcus aureus = experiment: MIC agar dilution, aerobic and facultative bacteria
Clostridium perfringens = experiment: microbe, parasite or virus in culture; format: cell-based
P. species = experiment: MIC agar dilution, anaerobic bacteria; format: cell-based; conditions: Culture # 1776
Klebsiella pneumoniae = experiment: MIC agar dilution, aerobic and facultative bacteria; conditions: Culture # 2518
Mycobacterium smegmatis = experiment: as above; conditions: Culture # 5171
Pseudomonas aeruginosa = experiment: as above
S. epidermidis = experiment: as above; conditions: Culture # 1666
C. ramosum = experiment: MIC agar dilution, anaerobic bacteria; format: cell-based; conditions: Culture # 2482
P. cepacia = experiment: MIC agar dilution, aerobic and facultative bacteria; conditions: Culture # 1684
B. thetaiotaomicron = experiment: MIC agar dilution, anaerobic bacteria; format: cell-based
Fusobacterium species = experiment: MIC agar dilution, anaerobic bacteria; format: cell-based; conditions: Culture # 1770
B. disiens = experiment: MIC agar dilution, anaerobic bacteria; format: cell-based; conditions: Culture # 1763
P. anaerobius = experiment: MIC agar dilution, anaerobic bacteria; format: cell-based; conditions: Culture # 1780
Micrococcus luteus = experiment: MIC agar dilution, aerobic and facultative bacteria
Fusobacterium nucleatum = experiment: MIC agar dilution, anaerobic bacteria; format: cell-based; conditions: Culture # 2478
B. loescheii = experiment: MIC agar dilution, anaerobic bacteria; format: cell-based; conditions: Culture # 1767
Streptococcus bovis = experiment: MIC agar dilution, aerobic and facultative bacteria; conditions: Culture # 1699
S. pyogenes = experiment: as above
Propionibacterium acnes = experiment: MIC agar dilution, anaerobic bacteria; format: cell-based; conditions: Culture # 1775
[2] = test system: Peptostreptococcus asaccharolyticus; experiment: MIC agar dilution, anaerobic bacteria; format: cell-based; conditions: Culture # 1777

CCc1c(Cl)c(O)c(Cl)c(O)c1C(=O)O[C@H]1[C@H](O)[C@H](OC)[C@H](OC/C2=C\C=C\C[C@H](O)/C(C)=C/[C@H](CC)[C@@H](O[C@@H]3OC(C)(C)[C@@H](OC(=O)C(C)C)[C@H](O)[C@@H]3O)/C(C)=C/C(C)=C/C[C@@H]([C@@H](C)O)OC2=O)O[C@@H]1C [Tiacumicin B, tiacumicin B]
MIC (Providencia stuartii): > 100 µg/mL
MIC (Enterobacter aerogenes): > 100 µg/mL
MIC [1]: > 100 µg/mL
MIC (Veillonella parvula): 64 µg/mL (≈ 60.5 µM)
MIC (Enterococcus faecium): 6.2 µg/mL (≈ 5.86 µM)
MIC (Bacteriodes fragilis; Culture # 1756, Wilkins-Chalgren agar, 37° C., 48 hours): > 128 µg/mL
MIC (Bacteriodes fragilis; Culture # 1757): > 128 µg/mL
MIC (Bacteriodes fragilis; Culture # 1758): > 128 µg/mL
MIC (Bacteriodes fragilis; Culture # 1999): > 128 µg/mL
MIC (B. bivius): 128 µg/mL (≈ 121 µM)
MIC (C. difficile; Culture # 1496): 0.06 µg/mL (≈ 0.0567 µM)
MIC (C. difficile; Culture # 1497): 0.06 µg/mL (≈ 0.0567 µM)
MIC (C. difficile; Culture # 1774): 0.03 µg/mL (≈ 0.0284 µM)
MIC (C. difficile; Culture # 2025): 0.06 µg/mL (≈ 0.0567 µM)
MIC (C. difficile; Culture # 2480): 0.06 µg/mL (≈ 0.0567 µM)
MIC (C. difficile; Culture # 2528): 0.06 µg/mL (≈ 0.0567 µM)
MIC (C. difficile; Culture # 2529): 0.06 µg/mL (≈ 0.0567 µM)
MIC (Candida albicans): > 100 µg/mL
MIC (Nocardia asteroides): 0.39 µg/mL (≈ 0.369 µM)
MIC (Streptococcus agalactiae): 12.5 µg/mL (≈ 11.8 µM)
MIC (B. vulgatus; Culture # 1762): > 128 µg/mL
MIC (B. vulgatus; Culture # 2481): > 128 µg/mL
MIC (E. coli; DC-2, Culture # 1674): > 100 µg/mL
MIC (E. coli; H560, Culture # 1675): > 100 µg/mL
MIC (E. coli; Juhl, Culture # 1673): > 100 µg/mL
MIC (E. coli; KNK437, Culture # 1676): > 100 µg/mL
MIC (E. coli; SS, Culture # 2489): > 100 µg/mL
MIC (P. magnus): 0.5 µg/mL (≈ 0.473 µM)
MIC (Staphylococcus aureus; Culture # 1662, brain heart infusion agar, 37° C., 20 hours): 6.2 µg/mL (≈ 5.86 µM)
MIC (Staphylococcus aureus; Culture # 1664): 6.2 µg/mL (≈ 5.86 µM)
MIC (Staphylococcus aureus; Culture # 1690): 12.5 µg/mL (≈ 11.8 µM)
MIC (Staphylococcus aureus; Culture # 2124): 6.2 µg/mL (≈ 5.86 µM)
MIC (Staphylococcus aureus; Culture # 2130): 12.5 µg/mL (≈ 11.8 µM)
MIC (Staphylococcus aureus; Culture # 2498): 6.2 µg/mL (≈ 5.86 µM)
MIC (Staphylococcus aureus; cipro res., Culture # 3384): 12.5 µg/mL (≈ 11.8 µM)
MIC (Clostridium perfringens; Culture # 1771): 0.008 µg/mL (≈ 0.00756 µM)
MIC (Clostridium perfringens; Culture # 1772): 0.03 µg/mL (≈ 0.0284 µM)
MIC (Clostridium perfringens; Culture # 1773): 0.008 µg/mL (≈ 0.00756 µM)
MIC (P. species): 32 µg/mL (≈ 30.2 µM)
MIC (Klebsiella pneumoniae): > 100 µg/mL
MIC (Mycobacterium smegmatis): 12.5 µg/mL (≈ 11.8 µM)
MIC (Pseudomonas aeruginosa; Culture # 1679): > 100 µg/mL
MIC (Pseudomonas aeruginosa; Culture # 1680): > 100 µg/mL
MIC (Pseudomonas aeruginosa; Culture # 1681): > 100 µg/mL
MIC (Pseudomonas aeruginosa; Culture # 1682): 12.5 µg/mL (≈ 11.8 µM)
MIC (Pseudomonas aeruginosa; cipro R, Culture # 1919): > 100 µg/mL
MIC (Pseudomonas aeruginosa; cipro R, Culture # 1920): > 100 µg/mL
MIC (S. epidermidis): 3.1 µg/mL (≈ 2.93 µM)
MIC (C. ramosum): > 128 µg/mL
MIC (P. cepacia): > 100 µg/mL
MIC (B. thetaiotaomicron; Culture # 1764): > 128 µg/mL
MIC (B. thetaiotaomicron; Culture # 1765): > 128 µg/mL
MIC (B. thetaiotaomicron; Culture # 1766): > 128 µg/mL
MIC (Fusobacterium species): > 128 µg/mL
MIC (B. disiens): 32 µg/mL (≈ 30.2 µM)
MIC (P. anaerobius): 0.008 µg/mL (≈ 0.00756 µM)
MIC (Micrococcus luteus; Culture # 2493): 0.1 µg/mL (≈ 0.0945 µM)
MIC (Micrococcus luteus; Culture # 2517): 0.2 µg/mL (≈ 0.189 µM)
MIC (Fusobacterium nucleatum): > 128 µg/mL
MIC (B. loescheii): 64 µg/mL (≈ 60.5 µM)
MIC (Streptococcus bovis): 25 µg/mL (≈ 23.6 µM)
MIC (S. pyogenes; Culture # 1671): 25 µg/mL (≈ 23.6 µM)
MIC (S. pyogenes; const., Culture # 1672): 3.1 µg/mL (≈ 2.93 µM)
MIC (S. pyogenes; inducible, Culture # 2548): 6.2 µg/mL (≈ 5.86 µM)
MIC (Propionibacterium acnes): 4 µg/mL (≈ 3.78 µM)
MIC [2]: 1 µg/mL (≈ 0.945 µM)
